Source: patent US20220332700A1, “NOVEL APOPTOSIS SIGNAL-REGULATING KINASE 1 INHIBITORS” (MANKIND PHARMA LTD, priority 2019, published 2022)

How the values were obtained:
recombinant ASK1 = biological target: T1, recombinant ASK1 (Homo sapiens, UniProt Q99683); assay: ASK1 Biochemical Assay (HTRF KinEASE-STK S3); conditions: ATP 100 μM; read-out: Biochemical Assay IC50
T1 construct: purchased Carna Biosciences
How it was run: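 Recombinant ASK1 (5 ng) preincubated with compound 1 h at 23 °C in MOPS pH 7 buffer with Mg-acetate, DTT, NP40, glycerol, BSA and 1% DMSO. Inhibition calculated against vehicle after substrate-blank subtraction.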

Human ASK1 = biological target: T2, Human ASK1 (Homo sapiens, UniProt Q99683); assay: ASK1 Cell Based Assay (phospho p38 read out in hASK1 transfected HEK293T-AP1 cells); conditions: HEK293T-AP1 cells, 1 mM hydrogen peroxide, phospho p38; read-out: Cell Based Assay IC50
T2 construct: expressed in transfected cells; host or cells: HEK293T-AP1
T2 sequence (Q99683 1-1374): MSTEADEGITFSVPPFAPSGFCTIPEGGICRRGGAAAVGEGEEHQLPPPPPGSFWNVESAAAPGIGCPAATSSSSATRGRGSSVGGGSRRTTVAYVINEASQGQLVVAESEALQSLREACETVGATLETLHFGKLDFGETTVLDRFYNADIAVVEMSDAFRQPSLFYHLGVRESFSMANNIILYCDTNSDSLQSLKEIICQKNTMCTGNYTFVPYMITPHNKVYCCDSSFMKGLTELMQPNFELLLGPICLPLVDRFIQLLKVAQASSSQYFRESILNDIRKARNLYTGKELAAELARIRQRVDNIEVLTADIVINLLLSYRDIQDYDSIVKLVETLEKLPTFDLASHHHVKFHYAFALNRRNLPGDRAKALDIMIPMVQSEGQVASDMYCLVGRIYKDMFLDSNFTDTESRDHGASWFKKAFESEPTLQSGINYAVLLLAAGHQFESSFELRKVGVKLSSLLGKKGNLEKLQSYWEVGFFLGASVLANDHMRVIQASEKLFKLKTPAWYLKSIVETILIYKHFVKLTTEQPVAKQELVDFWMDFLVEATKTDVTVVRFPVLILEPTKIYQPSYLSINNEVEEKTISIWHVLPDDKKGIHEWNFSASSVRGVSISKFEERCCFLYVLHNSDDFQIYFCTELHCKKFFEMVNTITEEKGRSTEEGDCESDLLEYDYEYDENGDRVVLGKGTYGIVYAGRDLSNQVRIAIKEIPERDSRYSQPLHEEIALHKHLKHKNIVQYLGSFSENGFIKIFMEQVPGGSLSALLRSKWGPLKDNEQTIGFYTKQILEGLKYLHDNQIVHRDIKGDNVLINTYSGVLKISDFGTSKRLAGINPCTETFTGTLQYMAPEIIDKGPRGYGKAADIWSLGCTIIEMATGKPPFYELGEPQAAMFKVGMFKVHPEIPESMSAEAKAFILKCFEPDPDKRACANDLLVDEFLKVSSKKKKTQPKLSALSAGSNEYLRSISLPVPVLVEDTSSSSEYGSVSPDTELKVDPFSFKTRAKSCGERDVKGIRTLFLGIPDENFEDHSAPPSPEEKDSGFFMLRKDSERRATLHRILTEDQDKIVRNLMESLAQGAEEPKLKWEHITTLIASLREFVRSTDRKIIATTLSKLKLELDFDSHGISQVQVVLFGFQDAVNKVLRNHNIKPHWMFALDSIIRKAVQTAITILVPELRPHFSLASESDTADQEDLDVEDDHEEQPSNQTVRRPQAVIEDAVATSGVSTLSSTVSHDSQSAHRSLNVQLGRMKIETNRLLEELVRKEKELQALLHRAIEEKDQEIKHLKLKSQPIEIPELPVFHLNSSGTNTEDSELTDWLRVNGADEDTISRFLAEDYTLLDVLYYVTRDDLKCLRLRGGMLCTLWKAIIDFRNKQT
Method: HEK293T-AP1 cells were seeded at a density of 20,000 cells per well in a poly-d-lysine coated 96 well microplate. Next day, cells were transfected with hASK1-pcDNA3.1 vector using lipofectamine 3000. After 24 hours of transfection, cells were treated with compounds for 24 hours in assay medium. DMSO was used as a vehicle control with a final DMSO concentration of 0.2%. On 4th day, medium was discarded and cells were activated with 1 mM hydrogen peroxide for 1 hour in the presence of compounds. Cells were lysed for 1 hour with 1× lysis buffer on a shaker at 100 rpm. Sixteen microliters of lysate was collected into a 384 well small volume plate. Phospho p38 levels in the lysate was detected by using CisbioPhospho-p38 MAPK (Thr180/Tyr182) #64P38PEG.Four microliters of phospho p38 antibodies labelled with europium cryptate and d2 acceptor, were added to the lysate and incubated overnight. TR-FRET was measured at an excitation of 335 nm and emission was measured at 615 nm and 665 nm in BMG FLUOstar multimode reader.
Compounds were assessed for ASK1 inhibition based on phospho p38 read out. […] Background control values were susbtracted from vehicle control as well as from compound treated wells.

Row | IC50 (recombinant ASK1) [nM] | IC50 (Human ASK1) [nM] | SMILES
1 | < 100 | > 1000 | CC(C)n1cnnc1-c1cccc(N2CCN(c3ccc(S(C)(=O)=O)nc3)C2=O)n1 [Example 1018, 1-(6-(4-isopropyl-4H-1,2,4-triazol-3-yl)pyridin-2-yl)-3-(6-(methylsulfonyl)pyridin-3-yl)imidazolidin-2-one]
2 | < 100 | < 1000 | CC(C)n1cnnc1-c1cccc(N2CCN(c3ccc(S(C)(=O)=O)c(F)c3)C2=O)n1 [Example 1038, 1-(3-fluoro-4-(methylsulfonyl)phenyl)-3-(6-(4-isopropyl-4H-1,2,4-triazol-3-yl)pyridin-2-yl)imidazolidin-2-one]
3 | < 100 | > 1000 | CC(C)n1cnnc1-c1cccc(N2CCN(c3ccc(N4CCOCC4)c(F)c3)C2=O)n1 [Example 1075, 1-(3-fluoro-4-morpholinophenyl)-3-(6-(4-isopropyl-4H-1,2,4-triazol-3-yl)pyridin-2-yl)imidazolidin-2-one]
4 | < 100 | > 1000 | Cc1cc(N2CCN(c3cccc(-c4nncn4C(C)C)n3)C2=O)ccc1S(C)(=O)=O [Example 1029, 1-(6-(4-isopropyl-4H-1,2,4-triazol-3-yl)pyridin-2-yl)-3-(3-methyl-4-(methylsulfonyl)phenyl)imidazolidin-2-one]
5 | < 100 | > 1000 | CC(C)n1cnnc1-c1cccc(N2CCN(c3ccc(NC(C(N)=O)C4CC4)cc3)C2=O)n1 (stereo not drawn) [Example 1052, 2-(4-(3-(6-(4-isopropyl-4H-1,2,4-triazol-3-yl)pyridin-2-yl)-2-oxoimidazolidin-1-yl)phenylamino)-2-cyclopropylacetamide]
6 | < 50 | 190 | CC(C)n1cnnc1-c1cccc(N2CCN(c3ccc(N4CCOCC4)nc3)C2=O)n1 [Example 1101, 1-(6-(4-isopropyl-4H-1,2,4-triazol-3-yl)pyridin-2-yl)-3-(6-morpholinopyridin-3-yl)imidazolidin-2-one]
7 | > 100 | > 1000 | CC(C)n1cnnc1-c1cccc(N2CCN(c3ccc(S(C)(=O)=O)s3)C2=O)n1 [Example 1123, 1-(6-(4-isopropyl-4H-1,2,4-triazol-3-yl)pyridin-2-yl)-3-(5-(methylsulfonyl)thiophen-2-yl)imidazolidin-2-one]
8 | < 100 | > 1000 | CC(C)n1cnnc1-c1cccc(N2CCN(c3ccc(C4CCOCC4)cc3)C2=O)n1 [Example 1066, 1-(4-(tetrahydro-2H-pyran-4-yl)phenyl)-3-(6-(4-isopropyl-4H-1,2,4-triazol-3-yl)pyridin-2-yl)imidazolidin-2-one]
9 | < 100 | 1560 | CNC(=O)[C@H]1CCN(c2ccc(N3CCN(c4cccc(-c5nncn5C(C)C)n4)C3=O)cc2)C1 [Example 1131, (S)-1-(4-(3-(6-(4-isopropyl-4H-1,2,4-triazol-3-yl)pyridin-2-yl)-2-oxoimidazolidin-1-yl)phenyl)-N-methylpyrrolidine-3-carboxamide]
10 | < 100 | > 100 | CC(C)n1cnnc1-c1cccc(N2CCN(c3cnc(N4CCOCC4)nc3)C2=O)n1 [Example 1103, 1-(6-(4-isopropyl-4H-1,2,4-triazol-3-yl)pyridin-2-yl)-3-(2-morpholinopyrimidin-5-yl)imidazolidin-2-one]
11 | < 100 | > 1000 | CC(C)n1cnnc1-c1cccc(N2CCN(c3ccc(N4CCN(C)CC4)cc3)C2=O)n1 [Example 1092, 1-(6-(4-isopropyl-4H-1,2,4-triazol-3-yl)pyridin-2-yl)-3-(4-(4-methylpiperazin-1-yl)phenyl)imidazolidin-2-one]
12 | < 1000 | > 10000 | CC(C)n1cnnc1-c1cccc(N2CCN(c3cccc(-c4ccncc4)c3)C2=O)n1 [Example 1011, 1-(6-(4-isopropyl-4H-1,2,4-triazol-3-yl)pyridin-2-yl)-3-(3-(pyridin-4-yl)phenyl)imidazolidin-2-one]
13 | < 100 | > 1000 | CC(C)n1cnnc1-c1cccc(N2CCN(c3ccc(C(=O)N4CC(C#N)C4)cc3)C2=O)n1 [Example 1095, 1-(4-(3-(6-(4-isopropyl-4H-1,2,4-triazol-3-yl)pyridin-2-yl)-2-oxoimidazolidin-1-yl)benzoyl)azetidine-3-carbonitrile]
14 | < 100 | > 100 | CC(C)n1cnnc1-c1cccc(N2CCN(c3ccc(N4CCN(C(=O)CC#N)CC4)cc3)C2=O)n1 [Example 1137, 3-(4-(4-(3-(6-(4-isopropyl-4H-1,2,4-triazol-3-yl)pyridin-2-yl)-2-oxoimidazolidin-1-yl)phenyl)piperazin-1-yl)-3-oxopropanenitrile]
15 | < 100 | > 1000 | CC(C)n1cnnc1-c1cccc(N2CCN(c3ccc(S(C)(=O)=O)cc3F)C2=O)n1 [Example 1032, 1-(2-fluoro-4-(methylsulfonyl)phenyl)-3-(6-(4-isopropyl-4H-1,2,4-triazol-3-yl)pyridin-2-yl)imidazolidin-2-one]
16 | < 100 | > 1000 | CC(C)n1cnnc1-c1cccc(N2CCN(c3ccc(S(C)(=O)=O)c(C4CC4)c3)C2=O)n1 [Example 1059, 1-(3-cyclopropyl-4-(methylsulfonyl)phenyl)-3-(6-(4-isopropyl-4H-1,2,4-triazol-3-yl)pyridin-2-yl)imidazolidin-2-one]
17 | < 100 | > 100 | CC1COCC(=O)N1c1ccc(N2CCN(c3cccc(-c4nncn4C(C)C)n3)C2=O)cc1 (stereo not drawn) [Example 1068, 4-(4-(3-(6-(4-isopropyl-4H-1,2,4-triazol-3-yl)pyridin-2-yl)-2-oxoimidazolidin-1-yl)phenyl)-5-methylmorpholin-3-one]
18 | < 100 | > 1000 | CC(C)n1cnnc1-c1cccc(N2CCN(c3ccc(CS(C)(=O)=O)cc3)C2=O)n1 [Example 1047, 1-(6-(4-isopropyl-4H-1,2,4-triazol-3-yl)pyridin-2-yl)-3-(4-((methylsulfonyl)methyl)phenyl)imidazolidin-2-one]
19 | < 100 | < 1000 | CC(C)n1cnnc1-c1cccc(N2CCN(c3ccc(C(O)C4CC4)cc3)C2=O)n1 (stereo not drawn) [Example 1051, 1-(4-(cyclopropyl(hydroxy)methyl)phenyl)-3-(6-(4-isopropyl-4H-1,2,4-triazol-3-yl)pyridin-2-yl)imidazolidin-2-one]
20 | < 100 | > 100 | CC1COCCN1c1ccc(N2CCN(c3cccc(-c4nncn4C(C)C)n3)C2=O)cc1 (stereo not drawn) [Example 1069, 1-(6-(4-isopropyl-4H-1,2,4-triazol-3-yl)pyridin-2-yl)-3-(4-(3-methylmorpholino)phenyl)imidazolidin-2-one]
21 | < 100 | > 1000 | CC(C)C(c1ccc(N2CCN(c3cccc(-c4nncn4C(C)C)n3)C2=O)cc1)N1CCOCC1 (stereo not drawn) [Example 1129, 1-(6-(4-isopropyl-4H-1,2,4-triazol-3-yl)pyridin-2-yl)-3-(4-(2-methyl-1-morpholinopropyl)phenyl)imidazolidin-2-one]
